Test results taken from patent US10906915B2, “Substituted pyrazoloazepin-4-ones and their use as phosphodiesterase inhibitors” (LEO Pharma A/S, priority 2016, dated 2021).
pIC50: −log10 of the molar value.

Each compound was assayed against human PDE4D catalytic domain (UniProt no. Q08499) (Homo sapiens (Human), UniProt Q08499) (assay: PDE4 assay (TR-FRET, FAM-cAMP cleavage)). Conditions: human PDE4D catalytic domain; molar concentration giving 50% inhibition of substrate cleavage; read-out: PDE4 IC50 range.
Type: biochemical
Outline: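 PDE4D catalytic domain ([…]) was incubated with unlabelled cAMP plus FAM-cAMP and titrated compound, stopped with binding buffer of metal-ion nanoparticles and Tb donor. AMP generation read by TR-FRET; IC50 as 50% inhibition of cleavage versus controls, reported as nM ranges.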

human PDE4D catalytic domain, sequence (Q08499 380-740 limits assumed): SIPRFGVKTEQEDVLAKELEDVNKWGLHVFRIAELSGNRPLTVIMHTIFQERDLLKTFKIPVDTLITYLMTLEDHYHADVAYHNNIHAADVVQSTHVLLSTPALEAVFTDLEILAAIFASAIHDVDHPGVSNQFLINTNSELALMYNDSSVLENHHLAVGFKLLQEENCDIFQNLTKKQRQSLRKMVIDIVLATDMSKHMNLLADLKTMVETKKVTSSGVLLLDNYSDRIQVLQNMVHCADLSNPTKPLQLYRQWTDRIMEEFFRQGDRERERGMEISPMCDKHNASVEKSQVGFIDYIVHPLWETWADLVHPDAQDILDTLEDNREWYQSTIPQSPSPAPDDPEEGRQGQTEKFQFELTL

Compound | pIC50
CCc1nn(CCCOC(=O)c2cc(C)ccc2F)c2c1C(=O)NCC1(CCOCC1)C2 [Example 37, 3-(3-ethyl-4-oxo-spiro[6,8-dihydro-5H-pyrazolo[4,3-c]azepine-7,4′-tetrahydropyran]-1-yl)propyl 2-fluoro-5-methyl-benzoate] | > 7.00
CCc1nn(CCCOC(=O)c2ccc(C(=O)N3CCOCC3)cc2)c2c1C(=O)NCC1(CCOCC1)C2 [Example 147, 3-(3-ethyl-4-oxo-spiro[6,8-dihydro-5H-pyrazolo[4,3-c]azepine-7,4′-tetrahydropyran]-1-yl)propyl 4-(morpholine-4-carbonyl)benzoate] | 6.30 to 7.00
CCc1nn(CCCOC(=O)c2ccccc2S(C)(=O)=O)c2c1C(=O)NCC1(CCOCC1)C2 [Example 100, 3-(3-ethyl-4-oxo-spiro[6,8-dihydro-5H-pyrazolo[4,3-c]azepine-7,4′-tetrahydropyran]-1-yl)propyl 2-methylsulfonylbenzoate] | > 7.00
CCc1nn(CCCOC(=O)c2ccc(F)c(C#N)c2)c2c1C(=O)NCC1(CCOCC1)C2 [Example 55, 3-(3-ethyl-4-oxo-spiro[6,8-dihydro-5H-pyrazolo[4,3-c]azepine-7,4′-tetrahydropyran]-1-yl)propyl 3-cyano-4-fluoro-benzoate] | > 7.00
CCc1nn(C[C@@H](C)COC(=O)c2ccc(F)c(C(F)(F)F)c2)c2c1C(=O)NCC1(CCOCC1)C2 [Example 224, [(2R)-3-(3-ethyl-4-oxo-spiro[6,8-dihydro-5H-pyrazolo[4,3-c]azepine-7,4′-tetrahydropyran]-1-yl)-2-methyl-propyl] 4-fluoro-3-(trifluoromethyl)benzoate] | > 7.00
CCc1nn(CCCOC(=O)c2ccc(C(F)(F)F)cc2Cl)c2c1C(=O)NCC1(CCOCC1)C2 [Example 126, 3-(3-ethyl-4-oxo-spiro[6,8-dihydro-5H-pyrazolo[4,3-c]azepine-7,4′-tetrahydropyran]-1-yl)propyl 2-chloro-4-(trifluoromethyl)benzoate] | > 7.00
CCc1nn(CCCOC(=O)c2cccc(C(C)=O)c2)c2c1C(=O)NCC1(CCOCC1)C2 [Example 51, 3-(3-ethyl-4-oxo-spiro[6,8-dihydro-5H-pyrazolo[4,3-c]azepine-7,4′-tetrahydropyran]-1-yl)propyl 3-acetylbenzoate] | > 7.00
CCc1nn(C[C@@H](C)COC(=O)c2ccccc2)c2c1C(=O)NCC1(CCOCC1)C2 [Example 163, [(2R)-3-(3-ethyl-4-oxo-spiro[6,8-dihydro-5H-pyrazolo[4,3-c]azepine-7,4′-tetrahydropyran]-1-yl)-2-methyl-propyl] benzoate] | > 7.00
CCc1nn(CCCOC(=O)c2cc(F)cc(C(F)(F)F)c2)c2c1C(=O)NCC1(CCOCC1)C2 [Example 108, 3-(3-ethyl-4-oxo-spiro[6,8-dihydro-5H-pyrazolo[4,3-c]azepine-7,4′-tetrahydropyran]-1-yl)propyl 3-fluoro-5-(trifluoromethyl)benzoate] | > 7.00
CCc1nn(C[C@@H](C)COC(=O)c2ccc(F)c(C#N)c2)c2c1C(=O)NCC1(CCOCC1)C2 [Example 184, [(2R)-3-(3-ethyl-4-oxo-spiro[6,8-dihydro-5H-pyrazolo[4,3-c]azepine-7,4′-tetrahydropyran]-1-yl)-2-methyl-propyl] 3-cyano-4-fluoro-benzoate] | > 7.00
CCc1nn(CCCOC(=O)c2cc(Cl)ccc2C(F)(F)F)c2c1C(=O)NCC1(CCOCC1)C2 [Example 124, 3-(3-ethyl-4-oxo-spiro[6,8-dihydro-5H-pyrazolo[4,3-c]azepine-7,4′-tetrahydropyran]-1-yl)propyl 5-chloro-2-(trifluoromethyl)benzoate] | > 7.00
CCc1nn(CCCOC(=O)c2ccc(C#N)c(F)c2)c2c1C(=O)NCC1(CCOCC1)C2 [Example 52, 3-(3-ethyl-4-oxo-spiro[6,8-dihydro-5H-pyrazolo[4,3-c]azepine-7,4′-tetrahydropyran]-1-yl)propyl 4-cyano-3-fluoro-benzoate] | > 7.00
CCc1nn(CCCOC(=O)c2ccc(S(C)(=O)=O)cc2)c2c1C(=O)NCC1(CCOCC1)C2 [Example 98, 3-(3-ethyl-4-oxo-spiro[6,8-dihydro-5H-pyrazolo[4,3-c]azepine-7,4′-tetrahydropyran]-1-yl)propyl 4-methylsulfonylbenzoate] | > 7.00
CCc1nn(CCCOC(=O)c2cccc(C(=O)N(C)C)c2)c2c1C(=O)NCC1(CCOCC1)C2 [Example 153, 3-(3-ethyl-4-oxo-spiro[6,8-dihydro-5H-pyrazolo[4,3-c]azepine-7,4′-tetrahydropyran]-1-yl)propyl 3-(dimethylcarbamoyl)-benzoate] | > 7.00
CCc1nn(CCCOC(=O)c2ccc(OC)cc2)c2c1C(=O)NCC1(CCOCC1)C2 [Example 28, 3-(3-ethyl-4-oxo-spiro[6,8-dihydro-5H-pyrazolo[4,3-c]azepine-7,4′-tetrahydropyran]-1-yl)propyl 4-methoxybenzoate] | > 7.00
CCc1nn(C[C@@H](C)COC(=O)c2cccc(OC)c2Cl)c2c1C(=O)NCC1(CCOCC1)C2 [Example 207, [(2R)-3-(3-ethyl-4-oxo-spiro[6,8-dihydro-5H-pyrazolo[4,3-c]azepine-7,4′-tetrahydropyran]-1-yl)-2-methyl-propyl] 2-chloro-3-methoxy-benzoate] | > 7.00
CCc1nn(C[C@@H](C)COC(=O)c2cccc(F)c2F)c2c1C(=O)NCC1(CCOCC1)C2 [Example 179, [(2R)-3-(3-ethyl-4-oxo-spiro[6,8-dihydro-5H-pyrazolo[4,3-c]azepine-7,4′-tetrahydropyran]-1-yl)-2-methyl-propyl] 2,3-difluorobenzoate] | > 7.00
CCc1nn(CCCOC(=O)c2cccc(Cl)c2OC)c2c1C(=O)NCC1(CCOCC1)C2 [Example 94, 3-(3-ethyl-4-oxo-spiro[6,8-dihydro-5H-pyrazolo[4,3-c]azepine-7,4′-tetrahydropyran]-1-yl)propyl 3-chloro-2-methoxy-benzoate] | > 7.00
CCc1nn(C[C@@H](C)COC(=O)c2ccc(C#N)cc2)c2c1C(=O)NCC1(CCOCC1)C2 [Example 168, [(2R)-3-(3-ethyl-4-oxo-spiro[6,8-dihydro-5H-pyrazolo[4,3-c]azepine-7,4′-tetrahydropyran]-1-yl)-2-methyl-propyl] 4-cyanobenzoate] | > 7.00
CCNC(=O)c1cccc(C(=O)OCCCn2nc(CC)c3c2CC2(CCOCC2)CNC3=O)c1 [Example 152, 3-(3-ethyl-4-oxo-spiro[6,8-dihydro-5H-pyrazolo[4,3-c]azepine-7,4′-tetrahydropyran]-1-yl)propyl 3-(ethylcarbamoyl)benzoate] | > 7.00
CCc1nn(CCCOC(=O)c2cccc(OC)c2Cl)c2c1C(=O)NCC1(CCOCC1)C2 [Example 91, 3-(3-ethyl-4-oxo-spiro[6,8-dihydro-5H-pyrazolo[4,3-c]azepine-7,4′-tetrahydropyran]-1-yl)propyl 2-chloro-3-methoxy-benzoate] | > 7.00
CCc1nn(CCCOC(=O)c2ccc(S(=O)(=O)NC)cc2)c2c1C(=O)NCC1(CCOCC1)C2 [Example 117, 3-(3-ethyl-4-oxo-spiro[6,8-dihydro-5H-pyrazolo[4,3-c]azepine-7,4′-tetrahydropyran]-1-yl)propyl 4-(methylsulfamoyl) benzoate] | > 7.00

Same assay, conditions: read-out: PDE4 IC50 range

Compound | pIC50
CCc1nn(CC(C)(C)COC(=O)c2cccc(C(=O)N(C)C)c2)c2c1C(=O)NCC1(CCOCC1)C2 [Example 342, [3-(3-ethyl-4-oxo-spiro[6,8-dihydro-5H-pyrazolo[4,3-c]azepine-7,4′-tetrahydropyran]-1-yl)-2,2-dimethyl-propyl] 3-(dimethylcarbamoyl)-benzoate] | > 7.00
CCc1nn(CCCCOC(=O)c2ccc(S(=O)(=O)C3CCCC3)cc2)c2c1C(=O)NCC1(CCOCC1)C2 [Example 376, 4-(3-ethyl-4-oxo-spiro[6,8-dihydro-5H-pyrazolo[4,3-c]azepine-7,4′-tetrahydropyran]-1-yl)butyl 4-cyclopentylsulfonylbenzoate] | 6.30 to 7.00
CCc1nn(CC2(COC(=O)c3ccc(C)cc3)COC2)c2c1C(=O)NCC1(CCOCC1)C2 [Example 357, [3-[(3-ethyl-4-oxo-spiro[6,8-dihydro-5H-pyrazolo[4,3-c]azepine-7,4′-tetrahydropyran]-1-yl)methyl]oxetan-3-yl]methyl 4-methylbenzoate] | > 7.00
CCc1nn(CC(C)(C)COC(=O)C2CCCC2)c2c1C(=O)NCC1(CCOCC1)C2 [Example 281, [3-(3-ethyl-4-oxo-spiro[6,8-dihydro-5H-pyrazolo[4,3-c]azepine-7,4′-tetrahydropyran]-1-yl)-2,2-dimethyl-propyl] cyclopentanecarboxylate] | > 7.00
CCc1nn(CC(C)(C)COC(=O)c2ccc(C(=O)N3CCOCC3)cc2)c2c1C(=O)NCC1(CCOCC1)C2 [Example 336, [3-(3-ethyl-4-oxo-spiro[6,8-dihydro-5H-pyrazolo[4,3-c]azepine-7,4′-tetrahydropyran]-1-yl)-2,2-dimethyl-propyl] 4-(morpholine-4-carbonyl)benzoate] | > 7.00
CCc1nn(CC(C)(C)COC(=O)c2cc(F)cc(C(F)(F)F)c2)c2c1C(=O)NCC1(CCOCC1)C2 [Example 310, [3-(3-ethyl-4-oxo-spiro[6,8-dihydro-5H-pyrazolo[4,3-c]azepine-7,4′-tetrahydropyran]-1-yl)-2,2-dimethyl-propyl] 3-fluoro-5-(trifluoromethyl)benzoate] | > 7.00
CCc1nn(CC2(COC(=O)c3ccc(Cl)cc3)COC2)c2c1C(=O)NCC1(CCOCC1)C2 [Example 361, [3-[(3-ethyl-4-oxo-spiro[6,8-dihydro-5H-pyrazolo[4,3-c]azepine-7,4′-tetrahydropyran]-1-yl)methyl]oxetan-3-yl]methyl 4-chlorobenzoate] | > 7.00
CCc1nn(C[C@@H](C)COC(=O)c2cccc(C(=O)N3CCCCC3)c2)c2c1C(=O)NCC1(CCOCC1)C2 [Example 269, [(2R)-3-(3-ethyl-4-oxo-spiro[6,8-dihydro-5H-pyrazolo[4,3-c]azepine-7,4′-tetrahydropyran]-1-yl)-2-methyl-propyl] 3-(piperidine-1-carbonyl)benzoate] | > 7.00
